Assay results as given in the supplement of paper PMC10307832.

Columns and labels:
Assay in all cases: relative viability (nuclei count vs DMSO), 5 days (fraction); higher = more cells survive
BX 795 = compound: O=C(NCCCNc1nc(Nc2cccc(NC(=O)N3CCCC3)c2)ncc1I)c1cccs1 [BX 795]
Outline: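 Viability was read as treated-well nuclei divided by vehicle-well nuclei, using the median across plates. Lung cancer cell lines in 1536-well plates were kept overnight at 37 °C, pinned with five √10-spaced library-drug doses, and after 5 days were Hoechst-stained, imaged at 4× and counted in MetaXpress. Plates passed only with control CV below 25% and at least one doubling.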

BX 795 + Phenformin = compound: O=C(NCCCNc1nc(Nc2cccc(NC(=O)N3CCCC3)c2)ncc1I)c1cccs1 [BX 795] + N=C(N)NC(=N)NCCc1ccccc1 [Phenformin] (partner 250 µM)
Outline: (§1)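 Relative viability was taken as the ratio of nuclei in treated wells to nuclei in vehicle wells. Lung cancer cell lines in 1536-well plates received compounds by pin tool one day after seeding, either one drug alone or a fixed anchor-drug dose plus five library-drug doses (not always all listed) in √10 steps. Nuclei were counted on 4× images after 5 days of treatment, and values are medians of duplicate plates.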

BX 795 + Vorinostat = compound: O=C(NCCCNc1nc(Nc2cccc(NC(=O)N3CCCC3)c2)ncc1I)c1cccs1 [BX 795] + O=C(CCCCCCC(=O)Nc1ccccc1)NO [Vorinostat] (partner 1 µM)
Outline: as §1

BX 795 + Tozasertib = compound: O=C(NCCCNc1nc(Nc2cccc(NC(=O)N3CCCC3)c2)ncc1I)c1cccs1 [BX 795] + Cc1cc(Nc2cc(N3CCN(C)CC3)nc(Sc3ccc(NC(=O)C4CC4)cc3)n2)n[nH]1 [Tozasertib] (partner 0.1 µM)
Outline: as §1

BX 795 + AZD7762 = compound: O=C(NCCCNc1nc(Nc2cccc(NC(=O)N3CCCC3)c2)ncc1I)c1cccs1 [BX 795] + NC(=O)Nc1cc(-c2cccc(F)c2)sc1C(=O)N[C@H]1CCCNC1 [AZD7762] (partner 0.2 µM)
Outline: as §1

BX 795 + Pemetrexed = compound: O=C(NCCCNc1nc(Nc2cccc(NC(=O)N3CCCC3)c2)ncc1I)c1cccs1 [BX 795] + Nc1nc2[nH]cc(CCc3ccc(C(=O)N[C@@H](CCC(=O)O)C(=O)O)cc3)c2c(=O)[nH]1 [Pemetrexed] (partner 0.2 µM)
Outline: as §1

BX 795 + Trametinib = compound: O=C(NCCCNc1nc(Nc2cccc(NC(=O)N3CCCC3)c2)ncc1I)c1cccs1 [BX 795] + CC(=O)Nc1cccc(-n2c(=O)n(C3CC3)c(=O)c3c(Nc4ccc(I)cc4F)n(C)c(=O)c(C)c32)c1 [Trametinib] (partner 0.02 µM)
Outline: as §1

BX 795 + Dasatinib = compound: O=C(NCCCNc1nc(Nc2cccc(NC(=O)N3CCCC3)c2)ncc1I)c1cccs1 [BX 795] + Cc1nc(Nc2ncc(C(=O)Nc3c(C)cccc3Cl)s2)cc(N2CCN(CCO)CC2)n1 [Dasatinib] (partner 0.075 µM)
Outline: as §1

BX 795 + Olaparib = compound: O=C(NCCCNc1nc(Nc2cccc(NC(=O)N3CCCC3)c2)ncc1I)c1cccs1 [BX 795] + O=C(c1cc(Cc2n[nH]c(=O)c3ccccc23)ccc1F)N1CCN(C(=O)C2CC2)CC1 [Olaparib] (partner 8 µM)
Outline: as §1

BX 795 + Palbociclib = compound: O=C(NCCCNc1nc(Nc2cccc(NC(=O)N3CCCC3)c2)ncc1I)c1cccs1 [BX 795] + CC(=O)c1c(C)c2cnc(Nc3ccc(N4CCNCC4)cn3)nc2n(C2CCCC2)c1=O [Palbociclib] (partner 0.5 µM)
Outline: as §1

BX 795 + OSI-027 = compound: O=C(NCCCNc1nc(Nc2cccc(NC(=O)N3CCCC3)c2)ncc1I)c1cccs1 [BX 795] + COc1cccc2cc(-c3nc([C@H]4CC[C@H](C(=O)O)CC4)n4ncnc(N)c34)[nH]c12 [OSI-027] (partner 0.5 µM)
Outline: as §1

BX 795 + Luminespib = compound: O=C(NCCCNc1nc(Nc2cccc(NC(=O)N3CCCC3)c2)ncc1I)c1cccs1 [BX 795] + CCNC(=O)c1noc(-c2cc(C(C)C)c(O)cc2O)c1-c1ccc(CN2CCOCC2)cc1 [Luminespib] (partner 0.01 µM)
Outline: as §1

BX 795 + Decitabine = compound: O=C(NCCCNc1nc(Nc2cccc(NC(=O)N3CCCC3)c2)ncc1I)c1cccs1 [BX 795] + Nc1ncn([C@H]2C[C@H](O)[C@@H](CO)O2)c(=O)n1 [Decitabine] (partner 2 µM)
Outline: as §1

NCI-H522
relative viability (BX 795; 0.04 µM): 0.92 | relative viability (BX 795; 0.1265 µM): 0.877 | relative viability (BX 795; 0.4 µM): 0.921 | relative viability (BX 795; 1.265 µM): 1.01 | relative viability (BX 795 + Phenformin; first compound 0.04 µM): 0.645 | relative viability (BX 795 + Phenformin; first compound 0.1265 µM): 0.643 | relative viability (BX 795 + Phenformin; first compound 0.4 µM): 0.681 | relative viability (BX 795 + Phenformin; first compound 1.265 µM): 0.668 | relative viability (BX 795 + Vorinostat; first compound 0.04 µM): 0.9 | relative viability (BX 795 + Vorinostat; first compound 0.1265 µM): 0.864 | relative viability (BX 795 + Vorinostat; first compound 0.4 µM): 0.875 | relative viability (BX 795 + Vorinostat; first compound 1.265 µM): 0.72 | relative viability (BX 795 + Tozasertib; first compound 0.04 µM): 0.57 | relative viability (BX 795 + Tozasertib; first compound 0.1265 µM): 0.603 | relative viability (BX 795 + Tozasertib; first compound 0.4 µM): 0.544 | relative viability (BX 795 + Tozasertib; first compound 1.265 µM): 0.569 | relative viability (BX 795 + AZD7762; first compound 0.04 µM): 0.716 | relative viability (BX 795 + AZD7762; first compound 0.1265 µM): 0.811 | relative viability (BX 795 + AZD7762; first compound 0.4 µM): 0.777 | relative viability (BX 795 + AZD7762; first compound 1.265 µM): 0.785 | relative viability (BX 795 + Pemetrexed; first compound 0.04 µM): 1.13 | relative viability (BX 795 + Pemetrexed; first compound 0.1265 µM): 1.16 | relative viability (BX 795 + Pemetrexed; first compound 0.4 µM): 1.08 | relative viability (BX 795 + Pemetrexed; first compound 1.265 µM): 1.02 | relative viability (BX 795 + Trametinib; first compound 0.04 µM): 0.84 | relative viability (BX 795 + Trametinib; first compound 0.1265 µM): 0.781 | relative viability (BX 795 + Trametinib; first compound 0.4 µM): 0.803 | relative viability (BX 795 + Trametinib; first compound 1.265 µM): 0.616 | relative viability (BX 795 + Dasatinib; first compound 0.04 µM): 0.972 | relative viability (BX 795 + Dasatinib; first compound 0.1265 µM): 0.769 | relative viability (BX 795 + Dasatinib; first compound 0.4 µM): 0.764 | relative viability (BX 795 + Dasatinib; first compound 1.265 µM): 0.849 | relative viability (BX 795 + Olaparib; first compound 0.04 µM): 0.616 | relative viability (BX 795 + Olaparib; first compound 0.1265 µM): 0.586 | relative viability (BX 795 + Olaparib; first compound 0.4 µM): 0.692 | relative viability (BX 795 + Olaparib; first compound 1.265 µM): 0.658 | relative viability (BX 795 + Palbociclib; first compound 0.04 µM): 0.958 | relative viability (BX 795 + Palbociclib; first compound 0.1265 µM): 0.969 | relative viability (BX 795 + Palbociclib; first compound 0.4 µM): 0.943 | relative viability (BX 795 + Palbociclib; first compound 1.265 µM): 0.982 | relative viability (BX 795 + OSI-027; first compound 0.04 µM): 0.801 | relative viability (BX 795 + OSI-027; first compound 0.1265 µM): 0.71 | relative viability (BX 795 + OSI-027; first compound 0.4 µM): 0.769 | relative viability (BX 795 + OSI-027; first compound 1.265 µM): 0.685 | relative viability (BX 795 + Luminespib; first compound 0.04 µM): 1.41 | relative viability (BX 795 + Luminespib; first compound 0.1265 µM): 1.23 | relative viability (BX 795 + Luminespib; first compound 0.4 µM): 1.02 | relative viability (BX 795 + Luminespib; first compound 1.265 µM): 1.01 | relative viability (BX 795 + Decitabine; first compound 0.04 µM): 0.556 | relative viability (BX 795 + Decitabine; first compound 0.1265 µM): 0.657 | relative viability (BX 795 + Decitabine; first compound 0.4 µM): 0.73 | relative viability (BX 795 + Decitabine; first compound 1.265 µM): 0.71
